{"source": "patent US20150125889A1", "about": "“IN VITRO DETECTION OF MICROORGANISMS WITH AZOREDUCTASE ACTIVITY” (BIOMÉRIEUX, priority 2012, published 2015)", "experiment_in_all_cases": "Reduction of azo substrates over 24 hours at 35° C., microtitration plate (Example 1)", "format_in_all_cases": "cell-based", "key": {"[1]": {"tested_on": "Acinetobacter baumanii", "parameters": "key to RED (substrate reduced or not): RED indicates whether the substrate is reduced (Y) or not (N); RED indicates whether the substrate is reduced (Y) or not (N); key to Decol (substrate decolourized, decrease in absorbance) / Fluo (fluorescence multiplied by 2 relative to substrate-free control) / Co (growth, absorbance at 660 nm): The symbol “+” means good growth/decolourization/significant increase in fluorescence; The symbol “+/−” means difficult growth; The symbol “−” means that there is no growth/decolourization/significant increase in fluorescence", "details": "A. baumannii, substrate 35 mg/l", "in_short": "(§1)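 Readout: A660 for growth; substrate-specific absorbance/fluorescence for azo reduction. Trypcase soya broth, 35 mg/l substrate, 0.5 McFarland inoculum, 35° C., 24 h. Reduced = decolourization and/or fluorescence ≥2× substrate-free control.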"}, "[2]": {"tested_on": "Enterococcus faecalis", "parameters": "key to RED (substrate reduced or not): RED indicates whether the substrate is reduced (Y) or not (N); RED indicates whether the substrate is reduced (Y) or not (N); key to Decol (substrate decolourized, decrease in absorbance) / Fluo (fluorescence multiplied by 2 relative to substrate-free control) / Co (growth, absorbance at 660 nm): The symbol “+” means good growth/decolourization/significant increase in fluorescence; The symbol “+/−” means difficult growth; The symbol “−” means that there is no growth/decolourization/significant increase in fluorescence", "details": "E. faecalis, substrate 35 mg/l", "in_short": "as §1"}, "[3]": {"tested_on": "Pseudomonas aeruginosa", "parameters": "key to RED (substrate reduced or not): RED indicates whether the substrate is reduced (Y) or not (N); RED indicates whether the substrate is reduced (Y) or not (N); key to Co (growth, absorbance at 660 nm) / Decol (substrate decolourized, decrease in absorbance) / Fluo (fluorescence multiplied by 2 relative to substrate-free control): The symbol “+” means good growth/decolourization/significant increase in fluorescence; The symbol “+/−” means difficult growth; The symbol “−” means that there is no growth/decolourization/significant increase in fluorescence", "details": "P. aeruginosa, substrate 35 mg/l", "in_short": "as §1"}, "[4]": {"tested_on": "Geotrichum candidum", "parameters": "key to RED (substrate reduced or not): RED indicates whether the substrate is reduced (Y) or not (N); RED indicates whether the substrate is reduced (Y) or not (N); key to Co (growth, absorbance at 660 nm) / Decol (substrate decolourized, decrease in absorbance) / Fluo (fluorescence multiplied by 2 relative to substrate-free control): The symbol “+” means good growth/decolourization/significant increase in fluorescence; The symbol “+/−” means difficult growth; The symbol “−” means that there is no growth/decolourization/significant increase in fluorescence", "details": "G. candidum, substrate 35 mg/l", "in_short": "as §1"}, "[5]": {"tested_on": "Kocuria rosea", "parameters": "key to RED (substrate reduced or not): RED indicates whether the substrate is reduced (Y) or not (N); RED indicates whether the substrate is reduced (Y) or not (N); key to Co (growth, absorbance at 660 nm) / Decol (substrate decolourized, decrease in absorbance) / Fluo (fluorescence multiplied by 2 relative to substrate-free control): The symbol “+” means good growth/decolourization/significant increase in fluorescence; The symbol “+/−” means difficult growth; The symbol “−” means that there is no growth/decolourization/significant increase in fluorescence", "details": "K. rosea, substrate 35 mg/l", "in_short": "as §1"}, "[6]": {"tested_on": "Staphylococcus aureus", "parameters": "key to RED (substrate reduced or not): RED indicates whether the substrate is reduced (Y) or not (N); RED indicates whether the substrate is reduced (Y) or not (N); key to Co (growth, absorbance at 660 nm) / Decol (substrate decolourized, decrease in absorbance) / Fluo (fluorescence multiplied by 2 relative to substrate-free control): The symbol “+” means good growth/decolourization/significant increase in fluorescence; The symbol “+/−” means difficult growth; The symbol “−” means that there is no growth/decolourization/significant increase in fluorescence", "details": "S. aureus, substrate 35 mg/l", "in_short": "as §1"}, "[7]": {"tested_on": "Cronobacter muytjensii", "parameters": "key to RED (substrate reduced or not): RED indicates whether the substrate is reduced (Y) or not (N); RED indicates whether the substrate is reduced (Y) or not (N); key to Co (growth, absorbance at 660 nm) / Decol (substrate decolourized, decrease in absorbance) / Fluo (fluorescence multiplied by 2 relative to substrate-free control): The symbol “+” means good growth/decolourization/significant increase in fluorescence; The symbol “+/−” means difficult growth; The symbol “−” means that there is no growth/decolourization/significant increase in fluorescence", "details": "E. muytjensii, substrate 35 mg/l", "in_short": "as §1"}}}
{"smiles": "O=C([O-])C1=NN(c2ccc(S(=O)(=O)[O-])cc2)C(=O)C1/N=N/c1ccc(S(=O)(=O)[O-])cc1.[Na+].[Na+].[Na+]", "note": "(stereo not drawn) [Tartrazine]", "values": [{"measurement": "Co (growth, absorbance at 660 nm)", "setting": "[1]", "value": "+"}, {"measurement": "Decol (substrate decolourized, decrease in absorbance)", "setting": "[1]", "value": "−"}, {"measurement": "Fluo (fluorescence multiplied by 2 relative to substrate-free control)", "setting": "[1]", "value": "−"}, {"measurement": "RED (substrate reduced or not)", "setting": "[1]", "value": "N"}, {"measurement": "Co (growth, absorbance at 660 nm)", "setting": "[2]", "value": "+"}, {"measurement": "Decol (substrate decolourized, decrease in absorbance)", "setting": "[2]", "value": "+"}, {"measurement": "Fluo (fluorescence multiplied by 2 relative to substrate-free control)", "setting": "[2]", "value": "+/−"}, {"measurement": "RED (substrate reduced or not)", "setting": "[2]", "value": "Y"}, {"measurement": "Co (growth, absorbance at 660 nm)", "setting": "[3]", "value": "+"}, {"measurement": "Decol (substrate decolourized, decrease in absorbance)", "setting": "[3]", "value": "−"}, {"measurement": "Fluo (fluorescence multiplied by 2 relative to substrate-free control)", "setting": "[3]", "value": "−"}, {"measurement": "RED (substrate reduced or not)", "setting": "[3]", "value": "N"}, {"measurement": "Co (growth, absorbance at 660 nm)", "setting": "[4]", "value": "+/−"}, {"measurement": "Decol (substrate decolourized, decrease in absorbance)", "setting": "[4]", "value": "−"}, {"measurement": "Fluo (fluorescence multiplied by 2 relative to substrate-free control)", "setting": "[4]", "value": "−"}, {"measurement": "RED (substrate reduced or not)", "setting": "[4]", "value": "N"}, {"measurement": "Co (growth, absorbance at 660 nm)", "setting": "[5]", "value": "−"}, {"measurement": "Decol (substrate decolourized, decrease in absorbance)", "setting": "[5]", "value": "−"}, {"measurement": "Fluo (fluorescence multiplied by 2 relative to substrate-free control)", "setting": "[5]", "value": "−"}, {"measurement": "Co (growth, absorbance at 660 nm)", "setting": "[6]", "value": "+"}, {"measurement": "Decol (substrate decolourized, decrease in absorbance)", "setting": "[6]", "value": "−"}, {"measurement": "Fluo (fluorescence multiplied by 2 relative to substrate-free control)", "setting": "[6]", "value": "−"}, {"measurement": "RED (substrate reduced or not)", "setting": "[6]", "value": "N"}, {"measurement": "Co (growth, absorbance at 660 nm)", "setting": "[7]", "value": "+"}, {"measurement": "Decol (substrate decolourized, decrease in absorbance)", "setting": "[7]", "value": "−"}, {"measurement": "Fluo (fluorescence multiplied by 2 relative to substrate-free control)", "setting": "[7]", "value": "−"}, {"measurement": "RED (substrate reduced or not)", "setting": "[7]", "value": "N"}]}
